Measured values from US9968084B2, “Synergistic herbicidal composition containing penoxsulam, triclopyr and imazethapyr” (Dow AgroSciences LLC, priority 2011, dated 2018).

What was measured:
Assay in all cases: Postemergence herbicidal activity of mixtures in the field (rice), visual weed control
Assay type in all cases: in vivo
[1] = tested on: Brachiaria platyphylla (GRISEB.) NASH (BRAPP); conditions: imazamox 44 g ai/ha
Protocol: (§1) Evaluation of Postemergence Herbicidal Activity of Mixtures in the Field
(§2) Field trials were conducted in rice using standard herbicide small plot research methodology. Plot size was 2×6 meter (m) with 4 replicates per treatment. The rice crop was grown using normal cultural practices for fertilization, seeding, watering, flooding and maintenance to ensure good growth of the crop and the weeds.
(§3) All treatments in the field trials were applied using a compressed air backpack sprayer calibrated to apply 187 liters per hectare (L/ha) spray volume. Commercially available products of the premix penoxsulam plus triclopyr (GraspXTRA® herbicide, trademark of Dow AgroSciences LLC) and imazethapyr or imazamox were mixed in water at appropriately formulated product rates to achieve the desired rates based on a unit area of application (hectare) to achieve the desired rates as shown. The GraspXTRA herbicide is a product that contains 0.25 lb penoxulam and 2.06 lb triclopyr triethylamine salt (1.5 lb acid equivalent) per gallon, so the weight ratio of the penoxulam to triclopyr acid equivalent is 1:6. Imazethapyr was used as Newpath 240 SL. imazamox was used as Beyond 120 SL. Treatments were rated at 15 to 63 days after application as compared to the untreated control plants. Visual weed control was scored on a scale of 0 to 100 percent where 0 corresponds to no injury and 100 corresponds to complete kill.
(§4) All treatment results, both for the single premix product, the single entity product and mixtures, are an average of 4 replicates and the tank mix interactions are significant at the […] level.
(§5) Colby's equation was used to determine the herbicidal effects expected from the mixtures (Colby, S. R. Calculation of the synergistic and antagonistic response of herbicide combinations. Weeds 1967, 15, 20-22.).
(§6) The following equation was used to calculate the expected activity of mixtures containing two active ingredients, A and B: Expected=A+B−(A×B/100)
(§7) A=observed efficacy of active ingredient A at the same concentration as used in the mixture.
(§8) B=observed efficacy of active ingredient B at the same concentration as used in the mixture.
(§9) All comparisons are an average of 4 replicates and are significant at the […] level. Rates of penoxsulam, triclopyr and imazethapyr or imazamox are expressed in grams active ingredient/hectare (g ai/ha).

[2] = tested on: Caperonia palustris ST.-HIL. (CNPPA); conditions: imazamox 44 g ai/ha
Protocol: as §1, §2, §3, §4, §5, §6, §7, §8, §9

[3] = tested on: Echinochloa crus-galli (ECHCG)
Protocol: as §1, §2, §3, §4, §5, §6, §7, §8, §9

Setaria spp. (SETSS) = conditions: imazethapyr 70 g ai/ha
Protocol: as §1, §2, §3, §4, §5, §6, §7, §8, §9

SMILES	% Control 41 DAA BRAPP Ob [1] [%]	% Control 43 DAA CNPPA Ob [2] [%]	% Control 43 DAA ECHCG Ob ([3]; imazamox 44 g ai/ha, 43 DAA) [%]	% Control 15DAA SETSS Ob (Setaria spp. (SETSS); 15 DAA) [%]	% Control 63DAA SETSS Ob (Setaria spp. (SETSS); 63 DAA) [%]	% Control 15DAA ECHCG Ob ([3]; imazethapyr 70 g ai/ha, 15 DAA) [%]	% Control 63DAA ECHCG Ob ([3]; imazethapyr 70 g ai/ha, 63 DAA) [%]
COCc1cnc(C2=NC(C)(C(C)C)C(=O)N2)c(C(=O)O)c1 (stereo not shown) [Imazamox, 2-[4,5-dihydro-4-methyl-4-(1-methylethyl)-5-oxo-1H-imidazol-2-yl]-5-(methoxymethyl)-3-pyridinecarboxylic acid]	61	0	78				
CCc1cnc(C2=NC(C)(C(C)C)C(=O)N2)c(C(=O)O)c1 (stereo not shown) [Imazethapyr, 2-[4,5-dihydro-4-methyl-4-(1-methylethyl)-5-oxo-1H-imidazol-2-yl]-5-ethyl-3-pyridinecarboxylic acid]				69	36	69	36
